In US4008274A, “Certain salicylanilides” (Yoshitomi Pharmaceutical Industries, Ltd., priority 1973, dated 1977):
In brackets after ≈: the same amount, converted by molar mass.

What was measured:
barnacles = assay: Barnacle Killing Activity; type: in vivo; conditions: after 48 hours, out of 30 living barnacles, 20°±2° C
Experimental: Seawater (4 liters) was poured into a glass vessel (15 × 20 × 21 cm). The water temperature was maintained at 20°±2° C. Clean air was introduced at a rate of 150 ml/min throughout the experiment. Then 1 ml (or 5 ml) of a solution prepared by dissolving 0.400 g of the test compound in 100 ml of 4:1 ethanol-acetone mixture was dropped into the vessel to attain the concentration of 1 ppm (or 5 ppm). As the control run, 1 ml (or 5 ml) of the solvent was dropped into the vessel. Of scores of barnacles sticking to a stone obtained from the sea-shore 30 living barnacles were selected at randum, the rest of the barnacles on the stone being neglected for the experiment. Such stone was put in the vessel. After 48 hours, the number of dead barnacles was counted.

[1] = system: Bacillus subtilis PCI 219; assay: Antibacterial Activity (agar dilution method), Bacillus subtilis PCI 219; type: cell-based; conditions: PCI219, 48 h; Bacillus subtilis PCI 219, nutrient agar, 37° C, 2 days; read-out: minimal inhibitory concentration (MIC)
Experimental: (§1) The minimal inhibitory concentration (MIC; mcg/ml) of the test compounds determined by the agar dilution method on the nutrient agar medium is shown in TABLE III. The procedure is as follows: The test compound was mixed with the nutrient agar medium and the medium was allowed to coagulate. A solution containing Staphylococcus aureus FDA 2099 or Bacillus subtilis PCI 219 was inoculated into the medium and cultivated at 37° C for 2 days.

[2] = system: Staphylococcus aureus FDA 2099; assay: Antibacterial Activity (agar dilution method), Staphylococcus aureus FDA 2099; type: cell-based; conditions: FDA2099, 48 h; Staphylococcus aureus FDA 2099, nutrient agar, 37° C, 2 days; read-out: minimal inhibitory concentration (MIC)
Experimental: as §1

Spirogyra = assay: Algicidal Activity; type: in vivo; parameters: key: 0: Brown algae on the bottom of the vessel. Destroyed and brown spiral chloroplasts (under a microscope).; 10: Vigorous algae growth. Vivid green spiral chloroplasts (under a microscope); conditions: 48 hours, 20°±2° C
Experimental: Tap water (4 liters) was poured into a glass vessel (15 × 20 × 21 cm). The vessel was kept in a greenhouse maintained at 20°±2° C. Then 1 ml (or 5 ml) of a solution prepared by dissolving 0.400 g of the test compound in 100 ml of 4:1 ethanol-acetone mixture was dropped into the vessel to attain the concentration of 1 ppm (or 5 ppm). As the control run, 1 ml (or 5 ml) of the solvent was dropped into the vessel. About 5 g of wet Spirogyra was put in the vessel. Clean air was introduced at a rate of 150 ml/min for 48 hours.
The algicidal acticity was evaluated by the following criteria:
0: Brown algae on the bottom of the vessel. Destroyed and brown spiral chloroplasts (under a microscope).
10: Vigorous algae growth. Vivid green spiral chloroplasts (under a microscope).

[3] = Oral toxicity (Litchfield-Wilcoxon method); conditions: mouse, in vivo, dd-strain female mice, 25% suspension in water containing 0.5% carboxymethylcellulose
Experimental: Oral LD50 values were determined in dd-strain female mice according to the conventional Litchfield-Wilcoxon method. The test compound was administered as a 25% suspension in water containing 0.5% carboxymethylcellulose.

Percutaneous toxicity = conditions: mouse, in vivo, topical or ocular; dd-strain female mice, 10% solution in acetone on shaved backs
Experimental: Percutaneous LD50 values were determined in dd-strain female mice by applying a 10% solution of the test compound in acetone on the shaved backs.

Row | SMILES | number of dead barnacles (barnacles; 1 ppm) | number of dead barnacles (barnacles; 5 ppm) | MIC [1] [µg/mL] | MIC [2] [µg/mL] | algicidal activity score (Spirogyra; 1 ppm) | algicidal activity score (Spirogyra; 5 ppm) | LD50 [3] [mg/kg] | LD50 (Percutaneous toxicity) [mg/kg]
1 | Cc1ccc(O)c(C(=O)Nc2ccc([N+](=O)[O-])cc2C)c1 [Test Compound 1, 2',5-dimethyl-4'-nitrosalicylanilide] | 10 | 30 | 2 (≈ 6.99 µM) | 5 (≈ 17.5 µM) | 0 | 0 |  | 
2 | Cc1ccc(O)c(C(=O)Nc2ccc([N+](=O)[O-])c(C)c2)c1 [Test Compound 2, 3',5-Dimethyl-4'-nitrosalicylanilide] | 2 | 30 |  |  | 0 | 0 |  | 
3 | Cc1cc([N+](=O)[O-])ccc1NC(=O)c1cc(C(C)(C)C)ccc1O [Test Compound 10, 5-Tert-butyl-2'-methyl-4'-nitrosalicylanilide] |  |  |  |  |  |  | > 10000 | > 5000
4 | Cc1cccc(NC(=O)c2cc(C(C)(C)C)ccc2O)c1C [Test Compound 16, 5-Tert-butyl-2',3'-dimethylsalicylanilide] |  |  |  |  |  |  | > 10000 | > 5000
5 | O=C(Nc1ccc(Br)cc1)c1cc(Br)cc(Br)c1O [Tribromsalan, 3,4',5-Tribromosalicylanilide, reference compound] |  |  |  |  |  |  | 124 | > 2000
6 | Cc1ccc(O)c(C(=O)Nc2cc([N+](=O)[O-])ccc2C)c1 [compound 3] | 3 | 30 | 10 (≈ 34.9 µM) | 10 (≈ 34.9 µM) |  |  |  | 
7 | Cc1ccc(O)c(C(=O)Nc2ccc([N+](=O)[O-])cc2)c1 [compound 4] |  |  |  |  | 10 | 0 |  | 
8 | CSc1cccc(NC(=O)c2cc(C)ccc2O)c1 [compound 5] | 2 | 18 |  |  |  |  |  | 
9 | COc1cc([N+](=O)[O-])ccc1NC(=O)c1cc(C)ccc1O [compound 6] | 2 | 20 |  |  |  |  |  | 
10 | Cc1cc([N+](=O)[O-])ccc1NC(=O)c1cc(C(C)C)ccc1O [compound 7] | 14 | 30 | 5 (≈ 15.9 µM) | 5 (≈ 15.9 µM) | 0 | 0 |  | 
11 | Cc1ccc([N+](=O)[O-])cc1NC(=O)c1cc(C(C)C)ccc1O [compound 8] | 16 | 30 | 5 (≈ 15.9 µM) | 5 (≈ 15.9 µM) | 10 | 0 |  | 
12 | CC(C)c1ccc(O)c(C(=O)Nc2ccc([N+](=O)[O-])cc2)c1 [compound 9] | 20 | 30 | 5 (≈ 16.6 µM) | 5 (≈ 16.6 µM) | 0 | 0 |  | 
13 | Cc1cc([N+](=O)[O-])ccc1NC(=O)c1cc(C(C)(C)C)ccc1O [compound 10] | 30 | 30 | 0.5 (≈ 1.52 µM) | 1 (≈ 3.05 µM) | 0 | 0 |  | 
14 | Cc1cc(NC(=O)c2cc(C(C)(C)C)ccc2O)ccc1[N+](=O)[O-] [compound 11] | 30 | 30 | 1 (≈ 3.05 µM) | 1 (≈ 3.05 µM) | 10 | 0 |  | 
15 | Cc1ccc([N+](=O)[O-])cc1NC(=O)c1cc(C(C)(C)C)ccc1O [compound 12] | 30 | 30 | 2 (≈ 6.09 µM) | 2 (≈ 6.09 µM) | 10 | 0 |  | 
16 | CC(C)(C)c1ccc(O)c(C(=O)Nc2ccc([N+](=O)[O-])cc2)c1 [compound 13] | 22 | 30 | 1 (≈ 3.18 µM) | 2 (≈ 6.36 µM) |  |  |  | 
17 | CSc1cccc(NC(=O)c2cc(C(C)(C)C)ccc2O)c1 [compound 14] | 3 | 30 | 5 (≈ 15.9 µM) | 5 (≈ 15.9 µM) | 10 | 0 |  | 
18 | COc1cc([N+](=O)[O-])ccc1NC(=O)c1cc(C(C)(C)C)ccc1O [compound 15] | 9 | 30 |  |  |  |  |  | 
19 | Cc1cccc(NC(=O)c2cc(C(C)(C)C)ccc2O)c1C [compound 16] | 4 | 30 |  |  | 10 | 0 |  | 
20 | COc1ccc(NC(=O)c2cc(C(C)(C)C)ccc2O)cc1 [compound 17] |  |  |  |  | 10 | 0 |  | 
21 | CCC(C)(C)c1ccc(O)c(C(=O)Nc2ccc([N+](=O)[O-])cc2C)c1 [compound 18] | 30 | 30 | 0.5 (≈ 1.46 µM) | 0.5 (≈ 1.46 µM) | 0 | 0 |  | 
22 | CCC(C)(C)c1ccc(O)c(C(=O)Nc2ccc([N+](=O)[O-])c(C)c2)c1 [compound 19] | 2 | 30 | 0.5 (≈ 1.46 µM) | 0.5 (≈ 1.46 µM) | 0 | 0 |  | 
23 | CCC(C)(C)c1ccc(O)c(C(=O)Nc2cc([N+](=O)[O-])ccc2C)c1 [compound 20] | 30 | 30 | 1 (≈ 2.92 µM) | 1 (≈ 2.92 µM) | 0 | 0 |  | 
24 | CCC(C)(C)c1ccc(O)c(C(=O)Nc2ccc([N+](=O)[O-])cc2)c1 [compound 21] | 25 | 30 | 1 (≈ 3.05 µM) | 1 (≈ 3.05 µM) | 0 | 0 |  | 
25 | CCC(C)(C)c1ccc(O)c(C(=O)Nc2cccc(SC)c2)c1 [compound 22] |  |  |  |  | 10 | 0 |  | 
26 | CCC(C)(C)c1ccc(O)c(C(=O)Nc2ccc([N+](=O)[O-])cc2OC)c1 [compound 23] | 6 | 30 | 5 (≈ 14 µM) | 5 (≈ 14 µM) | 0 | 0 |  | 
27 | Cc1cc([N+](=O)[O-])ccc1NC(=O)c1cc(C(C)(C)CC(C)(C)C)ccc1O [compound 24] |  |  | 1 (≈ 2.6 µM) | 1 (≈ 2.6 µM) |  |  |  | 
